Data as given in ChEMBL document CHEMBL5584353, “Design, Synthesis, and Biological Evaluation of Potent EZH2/LSD1 Dual Inhibitors for Prostate Cancer” (J Med Chem, 2024).
pIC50: −log10 of the molar value. Active and inactive are the calls of the source. The calls are words filed in the database; no cut-off is given here.

Tests used:
[1] = Cytotoxicity against human HPNE cells incubated for 6 to 7 days by MTS assay; format: toxicity, cell-based; details: time 6-7 day
[2] = Toxicity in BALB/c mouse xenografted with human 22Rv1 cells assessed as spleen morphological change at 80 mg/kg,ip administrated daily for 31 days; format: organism-based, CWR22R; details: in vivo, 744 h, time 31 day
PC-3 [3] = experiment: Antiproliferative activity against human PC-3 cells assessed as inhibition of cell growth incubated for 6 to 7 days by MTS assay; format: functional, cell-based; details: time 6-7 day
[4] = biological target: T1, Histone-lysine N-methyltransferase EZH1 (Homo sapiens, UniProt Q92800); experiment: Inhibition of EZH1 (unknown origin)
T1 sequence (Q92800 whole entry): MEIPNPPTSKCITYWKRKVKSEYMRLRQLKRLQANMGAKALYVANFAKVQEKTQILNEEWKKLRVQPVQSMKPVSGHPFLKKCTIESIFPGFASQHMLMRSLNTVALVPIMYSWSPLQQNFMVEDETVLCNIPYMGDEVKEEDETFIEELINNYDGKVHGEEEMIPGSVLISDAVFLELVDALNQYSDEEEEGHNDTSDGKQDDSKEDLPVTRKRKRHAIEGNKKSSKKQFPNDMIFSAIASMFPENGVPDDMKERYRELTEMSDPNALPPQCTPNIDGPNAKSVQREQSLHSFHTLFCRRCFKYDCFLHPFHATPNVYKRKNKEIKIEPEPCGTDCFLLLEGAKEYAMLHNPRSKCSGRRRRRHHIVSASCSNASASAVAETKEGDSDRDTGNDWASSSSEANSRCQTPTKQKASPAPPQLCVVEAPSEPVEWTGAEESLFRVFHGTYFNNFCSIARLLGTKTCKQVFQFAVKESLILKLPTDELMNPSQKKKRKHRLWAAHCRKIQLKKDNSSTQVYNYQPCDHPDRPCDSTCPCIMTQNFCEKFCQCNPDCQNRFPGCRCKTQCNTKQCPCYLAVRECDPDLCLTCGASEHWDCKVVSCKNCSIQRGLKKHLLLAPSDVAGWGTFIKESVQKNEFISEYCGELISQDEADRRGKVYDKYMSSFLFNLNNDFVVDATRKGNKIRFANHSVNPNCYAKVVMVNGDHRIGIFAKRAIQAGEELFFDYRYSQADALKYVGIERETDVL

[5] = Half life in BALB/c mouse at 50 mg/kg,po measured upto 24 hrs by HPLC-MS/MS analysis; format: ADME, organism-based; details: in vivo
[6] = Oral bioavailability in BALB/c mouse at 50 mg/kg measured upto 24 hrs by HPLC-MS/MS analysis; format: ADME, organism-based; details: in vivo
PC-3 [7] = experiment: Induction of cell cycle arrest in human PC-3 cells assessed as accumulation of cells at G0/G1 phase incubated for 72 hrs by propidium iodide/RNase staining based flow cytometric analysis; format: functional
[8] = Toxicity in BALB/c mouse xenografted with human 22Rv1 cells assessed as change in body weight at 80 mg/kg,ip administrated daily for 31 days; format: organism-based, CWR22R; details: in vivo, 744 h, time 31 day
CWR22R [9] = experiment: Induction of apoptosis in human 22Rv1 cells assessed as upregulation of cleaved caspase-3 expression incubated for 48 hr by Western blotting analysis; format: functional, cell-based
[10] = biological target: Lysine-specific histone demethylase 1A (Homo sapiens, UniProt O60341); experiment: Inhibition of LSD1 in human LNCaP cells assessed as upregulation of H3K4me2 expression at 1 to 5 uM incubated for 5 days by Western blotting analysis; format: cell-based; details: dose 1-5 µM, time 5.0 day
LNCaP C4-2B = experiment: Antiproliferative activity against human LNCaP C4-2B cells assessed as inhibition of cell growth incubated for 6 to 7 days by MTS assay; format: functional, cell-based; details: time 6-7 day
A549 = experiment: Antiproliferative activity against human A549 cells assessed as inhibition of cell growth incubated for 6 to 7 days by MTS assay; format: functional, cell-based; details: time 6-7 day
BT-549 = experiment: Antiproliferative activity against human BT-549 cells assessed as inhibition of cell growth incubated for 6 to 7 days by MTS assay; format: functional, cell-based; details: time 6-7 day
CWR22R [11] = experiment: Induction of cell cycle arrest in human 22Rv1 cells assessed as accumulation of cells at G0/G1 phase incubated for 72 hrs by propidium iodide/RNase staining based flow cytometric analysis; format: functional
[12] = AUC (0 to infinity) in BALB/c mouse at 50 mg/kg,po measured upto 24 hrs by HPLC-MS/MS analysis; format: ADME, organism-based; details: in vivo
CWR22R [13] = experiment: Antimigratory activity in human 22Rv1 cells assessed as upregulation of E-cadherin expression at 3 to 10 uM incubated for 48 hrs by Western blotting analysis; format: functional, cell-based; details: dose 3-10 µM
LNCaP = experiment: Antimigratory activity in human LNCaP cells assessed as downregulation of N-cadherin expression at 3 to 10 uM incubated for 48 hrs by Western blotting analysis; format: functional, cell-based; details: dose 3-10 µM
CWR22R [14] = experiment: Induction of apoptosis in human 22Rv1 cells at 1 uM incubated for 5 days by Annexin V-FITC/PI staining based flow cytometric analysis (reference value: 8.97 %); format: functional; details: time 5 day
[15] = Half life in BALB/c mouse at 50 mg/kg,iv measured upto 24 hrs by HPLC-MS/MS analysis; format: ADME, organism-based; details: in vivo

pIC50 [4]: 5.67 | half-life [5]: 3.5 h | bioavailability [6]: 32.9% | inhibition [10]: Active | AUC(0-inf) [12]: 41400 ng·h/mL | half-life [15]: 2.5 h
SMILES: CCN(c1cc(-c2ccc([C@@H]3C[C@H]3N(CC3CCOCC3)C(=O)OC(C)(C)C)cc2)cc(C(=O)NCc2c(C)cc(C)[nH]c2=O)c1C)C1CCOCC1 (racemic)
Activity [1]: Non-Toxic | Activity [2]: Non-Toxic | Activity (PC-3 [3]): Active | Activity (PC-3 [7]): Dose-Dependent Effect | Activity [8]: Non-Toxic | Activity (CWR22R [9]): Dose-Dependent Effect | Activity (LNCaP C4-2B): Active | Activity (A549): Active | Activity (BT-549): Active | Activity (CWR22R [11]): Dose-Dependent Effect | Activity (CWR22R [13]): Active | Activity (LNCaP): Active | Activity (CWR22R [14]): 17.71%
